Test results as given in patent publication US20260166125A1, “NLRP12 AND NLRC5 MODULATORS AND METHODS FOR USING THE SAME TO MODULATE DISEASES” (St. Jude Children's Research Hospital, Inc., priority 2022, published 2026).
Peptide text beside a SMILES is read from it. * marks the point of attachment. Cbz = O=C(OCc1ccccc1)*; CH2F = FC*

Key:
[1] = system: heme plus Pam3-treated BMDMs; test: Inhibitor effect on heme plus Pam3-induced cell death in BMDMs; assay type: cell-based, mouse
Procedure: (§1) Bone Marrow-Derived Macrophages (BMDMs). Primary mouse BMDMs from wild-type and indicated mutant mice were grown for 6 days in Iscove's Modified Dulbecco's Medium (IMDM; Thermo Fisher Scientific) supplemented with 10% Fetal Bovine Serum (Biowest), 30% L929-conditioned media, 1% non-essential amino acids (Thermo Fisher Scientific) and 1% penicillin and streptomycin (Thermo Fisher Scientific). BMDMs at a density of 1×10^6 cells/well in 12-well plates or 5×10^5 cells/well in 24-well plates were seeded into growth media overnight before use.
(§2) Cell Stimulation. BMDMs were stimulated with the following PAMPs, DAMPs and inhibitors alone or in combinations where indicated: 50 μM Hemin (heme; Sigma-Aldrich), 0.75 μg/mL Pam3CSK4 (Pam3; InvivoGen), 15 ng/mL ultrapure lipopolysaccharide (LPS) from E. coli 0111:B4 (InvivoGen), 500 ng/ml R848 (InvivoGen), 100 ng/mL TNF-α (Peprotech), 1 μg/mL poly(I:C) (Invivogen), 200 ng/mL monosodium urate crystals (Invivogen), 200 ng/mL recombinant mouse S100A8/S100A9 heterodimer (bio-techne), 200 ng/mL recombinant mouse HMGB1 (Abcam), 25 μM Z-VAD(OMe)-FMK (zVAD; Cayman Chemical) and 45 μM Necrostatin 2 racemate (Nec-1; Selleckchem).
(§3) Real-Time Imaging for Cell Death. The kinetics of cell death were monitored using the IncuCyte S3 or SX5 (Sartorius) live-cell analysis system. BMDMs (5×10^5 cells/well) were seeded in 24-well tissue culture plates and were treated with the indicated stimuli. Cell death was measured by propidium iodide (PI; Life Technologies) incorporation following the manufacturer's protocol. The plate was scanned for the indicated time durations where fluorescent and phase-contrast images were acquired in real-time every 1 hour. PI-positive dead cells are marked with a red mask and were quantified using the software package supplied with the IncuCyte imager.

[2] = system: bone marrow-derived macrophages (BMDMs); test: Real-time imaging for cell death (propidium iodide incorporation, IncuCyte); assay type: cell-based, mouse; details: WT BMDMs; stimuli alone or combined; 48 hours (FIG. 1, FIG. 2)
Procedure: as §1, §2, §3

CC(C)(O)c1coc(S(=O)(=O)NC(=O)Nc2c3c(cc4c2CCC4)CCC3)c1 [MCC950]
effect on cell death ([1]; heme plus Pam3-treated BMDMs, MCC950): did not prevent cell death

lipopolysaccharide [LPS]
cell death [2]: Minimal cell death

polyinosinic:polycytidylic acid [poly(I:C)]
cell death [2]: Minimal cell death

C=CC1=C(C)c2cc3[n-]c(cc4[n-]c(cc5nc(cc1n2)C(C)=C5C=C)c(C)c4CCC(=O)O)c(CCC(=O)O)c3C.[Cl-].[Fe+3] [heme, ferriprotoporphyrin IX chloride]
cell death [2]: did not induce cell death

COC(=O)C[C@H](NC(=O)[C@H](C)NC(=O)[C@@H](NC(=O)OCc1ccccc1)C(C)C)C(=O)CF [zVAD, Z-VAD(OMe)-FMK] (Cbz-Val-Ala-Asp(OMe)-CH2F)
effect on cell death ([1]; WT BMDMs, heme plus Pam3, combination of Nec-1 with zVAD): further reduced the cell death

Pam3CSK4
cell death [2]: Minimal cell death

O=c1[nH]c(=O)c2[nH]c([O-])nc2[nH]1.[Na+] [MSU, monosodium urate]
cell death [2]: did not induce cell death

CN1C(=O)NC(Cc2c[nH]c3c(Cl)cccc23)C1=O (racemic) [Nec-1, Necrostatin 2 racemate]
effect on cell death ([1]; WT BMDMs, heme plus Pam3, Nec-1 alone, compared to PBS control): partially reduced cell death

B1: S100A8/A9: recombinant mouse S100A8/S100A9 heterodimer, a DAMP (protein, UniProt P27005 2-89; P31725 2-113, looked up)
Protein S100-A8: PSELEKALSNLIDVYHNYSNIQGNHHALYKNDFKKMVTTECPQFVQNINIENLFRELDINSDNAINFEEFLAMVIKVGVASHKDSHKE
Protein S100-A9: ANKAPSQMERSITTIIDTFHQYSRKEGHPDTLSKKEFRQMVEAQLATFMKKEKRNEALINDIMEDLDTNQDNQLSFEECMMLMAKLIFACHEKLHENNPRGHGHSHGKGCGK
cell death [2]: did not induce cell death

B2: high-mobility group box 1 protein (protein, UniProt P63158 1-215, looked up)
High mobility group protein B1: MGKGDPKKPRGKMSSYAFFVQTCREEHKKKHPDASVNFSEFSKKCSERWKTMSAKEKGKFEDMAKADKARYEREMKTYIPPKGETKKKFKDPNAPKRPPSAFFLFCSEYRPKIKGEHPGLSIGDVAKKLGEMWNNTAADDKQPYEKKAAKLKEKYEKDIAAYRAKGKPDAAKKGVVKAEKSKKKKEEEDDEEDEEDEEEEEEEEDEDEEEDDDDE
notes: recombinant mouse HMGB1, a DAMP
cell death [2]: did not induce cell death
